Measured values published in PubChem BioAssay AID2060902 (Molecular Pharmacology Branch, DTP, NCI, 2025).

Test system: 485368-065-R3-J5-PDC spheroids with HUVEC/MSC, viability
Test: Anticancer human tumor 485368-065-R3-J5-PDC patient-derived pancreatic carcinoma cell line growth inhibition [RAS]
Conditions: for IC50: curve of first compound; for viability, T/C: stronger effect = lower value
Summary of the method: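 Agents were tested in combination matrices in half-log decrements from a top concentration at or near clinical Cmax (10 microM if undetermined). Targets were multi-cell spheroids of tumour lines plus HUVEC and MSC stromal cells.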

[1] = second compound 0.000949 µM, first compound 0.00316 µM
[2] = second compound 0.000949 µM, first compound 0.01 µM
[3] = second compound 0.000949 µM, first compound 0.0316 µM
[4] = second compound 0.000949 µM, first compound 0.1 µM
[5] = second compound 0.000949 µM, first compound 0.316 µM
[6] = second compound 0.000949 µM, first compound 1 µM
[7] = second compound 0.003 µM, first compound 0.00316 µM
[8] = second compound 0.003 µM, first compound 0.01 µM
[9] = second compound 0.003 µM, first compound 0.0316 µM
[10] = second compound 0.003 µM, first compound 0.1 µM
[11] = second compound 0.003 µM, first compound 0.316 µM
[12] = second compound 0.003 µM, first compound 1 µM
[13] = second compound 0.00949 µM, first compound 0.00316 µM
[14] = second compound 0.00949 µM, first compound 0.01 µM
[15] = second compound 0.00949 µM, first compound 0.0316 µM
[16] = second compound 0.00949 µM, first compound 0.1 µM
[17] = second compound 0.00949 µM, first compound 0.316 µM
[18] = second compound 0.00949 µM, first compound 1 µM
[19] = second compound 0.03 µM, first compound 0.00316 µM
[20] = second compound 0.03 µM, first compound 0.01 µM
[21] = second compound 0.03 µM, first compound 0.0316 µM
[22] = second compound 0.03 µM, first compound 0.1 µM
[23] = second compound 0.03 µM, first compound 0.316 µM
[24] = second compound 0.03 µM, first compound 1 µM
[25] = second compound 0.0949 µM, first compound 0.00316 µM
[26] = second compound 0.0949 µM, first compound 0.01 µM
[27] = second compound 0.0949 µM, first compound 0.0316 µM
[28] = second compound 0.0949 µM, first compound 0.1 µM
[29] = second compound 0.0949 µM, first compound 0.316 µM
[30] = second compound 0.0949 µM, first compound 1 µM
[31] = second compound 0.3 µM, first compound 0.00316 µM
[32] = second compound 0.3 µM, first compound 0.01 µM
[33] = second compound 0.3 µM, first compound 0.0316 µM
[34] = second compound 0.3 µM, first compound 0.1 µM
[35] = second compound 0.3 µM, first compound 0.316 µM
[36] = second compound 0.3 µM, first compound 1 µM
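Further: spheroids exposed to agents for seven days before readout.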

With `C=CC(=O)Nc1cc(Nc2nccc(-c3cn(C)c4ccccc34)n2)c(OC)cc1N(C)CCN(C)C` + CCn1c(-c2cccnc2C(C)OC)c2c3cc(ccc31)N1CCOC(CC(NC(=O)C(C(C)C)N(C)C(=O)C3(F)CCN(C(=O)C#CC(C)(C)N(C)C)CC3)C(=O)N3CCCC(N3)C(=O)OCC(C)(C)C2)C1 the IC50 (second compound 0.000949 µM) was over 1000 nM, the IC50 (second compound 0.003 µM) was over 1000 nM and the IC50 (second compound 0.00949 µM) was over 1000 nM. It also gave an IC50 (second compound 0.03 µM) of over 1000 nM, an IC50 (second compound 0.0949 µM) of over 1000 nM and an IC50 (second compound 0.3 µM) of over 1000 nM. The viability, T/C [1] was 104%, the viability, T/C [2] was 94.9% and the viability, T/C [3] was 99%. It also gave a viability, T/C [4] of 91%, a viability, T/C [5] of 101% and a viability, T/C [6] of 105%. The viability, T/C [7] was 87.5%, the viability, T/C [8] was 95.3% and the viability, T/C [9] was 102%. The viability, T/C [10] was 93.7%, the viability, T/C [11] was 113% and the viability, T/C [12] was 115%. It also gave a viability, T/C [13] of 88.7%, a viability, T/C [14] of 95.7% and a viability, T/C [15] of 98.4%. It also gave a viability, T/C [16] of 102%, a viability, T/C [17] of 117% and a viability, T/C [18] of 103%. It also gave a viability, T/C [19] of 89.4%, a viability, T/C [20] of 114% and a viability, T/C [21] of 92.5%. The viability, T/C [22] was 98%, the viability, T/C [23] was 105% and the viability, T/C [24] was 110%. The viability, T/C [25] was 104%, the viability, T/C [26] was 105% and the viability, T/C [27] was 105%. For the same compound, the viability, T/C [28] was 107%, the viability, T/C [29] was 110% and the viability, T/C [30] was 97.6%. For the same compound, the viability, T/C [31] was 101%, the viability, T/C [32] was 99.7% and the viability, T/C [33] was 106%. It also gave a viability, T/C [34] of 112%, a viability, T/C [35] of 106% and a viability, T/C [36] of 101%.
With `O=C(c1ccc(F)c(F)c1Nc1ccc(I)cc1F)N1CC(O)([C@@H]2CCCCN2)C1` + CCn1c(-c2cccnc2C(C)OC)c2c3cc(ccc31)N1CCOC(CC(NC(=O)C(C(C)C)N(C)C(=O)C3(F)CCN(C(=O)C#CC(C)(C)N(C)C)CC3)C(=O)N3CCCC(N3)C(=O)OCC(C)(C)C2)C1 the IC50 (second compound 0.000949 µM) was 58.6 nM, the IC50 (second compound 0.003 µM) was 66.5 nM and the IC50 (second compound 0.00949 µM) was 59.5 nM. It also gave an IC50 (second compound 0.03 µM) of 54.5 nM, an IC50 (second compound 0.0949 µM) of 65.5 nM and an IC50 (second compound 0.3 µM) of 40.4 nM. The viability, T/C [1] was 101%, the viability, T/C [2] was 78.4% and the viability, T/C [3] was 64.1%. It also gave a viability, T/C [4] of 37.7%, a viability, T/C [5] of 26.4% and a viability, T/C [6] of 11.7%. For the same compound, the viability, T/C [7] was 97.3%, the viability, T/C [8] was 88.4% and the viability, T/C [9] was 60.1%. For the same compound, the viability, T/C [10] was 40.7%, the viability, T/C [11] was 31.5% and the viability, T/C [12] was 13.9%. The viability, T/C [13] was 87%, the viability, T/C [14] was 73.6% and the viability, T/C [15] was 60.9%. For the same compound, the viability, T/C [16] was 39.4%, the viability, T/C [17] was 30.1% and the viability, T/C [18] was 14%. It also gave a viability, T/C [19] of 89.6%, a viability, T/C [20] of 76.8% and a viability, T/C [21] of 62.5%. The viability, T/C [22] was 36.8%, the viability, T/C [23] was 24% and the viability, T/C [24] was 15%. For the same compound, the viability, T/C [25] was 88.3%, the viability, T/C [26] was 75.3% and the viability, T/C [27] was 64%. For the same compound, the viability, T/C [28] was 39.8%, the viability, T/C [29] was 28.5% and the viability, T/C [30] was 10%. The viability, T/C [31] was 91.4%, the viability, T/C [32] was 74.7% and the viability, T/C [33] was 51.1%. For the same compound, the viability, T/C [34] was 36.3%, the viability, T/C [35] was 23.5% and the viability, T/C [36] was 8.18%.
